{
  "source": "paper PMC12657457",
  "about": "(Frontiers in Pharmacology, 2025)",
  "key": {"Recombinant human AChE": {"biological_target": "T1, Recombinant human AChE (Homo sapiens, UniProt P22303)", "T1 construct": "purchased Sigma-Aldrich C1682", "T1 sequence (P22303 32-614)": "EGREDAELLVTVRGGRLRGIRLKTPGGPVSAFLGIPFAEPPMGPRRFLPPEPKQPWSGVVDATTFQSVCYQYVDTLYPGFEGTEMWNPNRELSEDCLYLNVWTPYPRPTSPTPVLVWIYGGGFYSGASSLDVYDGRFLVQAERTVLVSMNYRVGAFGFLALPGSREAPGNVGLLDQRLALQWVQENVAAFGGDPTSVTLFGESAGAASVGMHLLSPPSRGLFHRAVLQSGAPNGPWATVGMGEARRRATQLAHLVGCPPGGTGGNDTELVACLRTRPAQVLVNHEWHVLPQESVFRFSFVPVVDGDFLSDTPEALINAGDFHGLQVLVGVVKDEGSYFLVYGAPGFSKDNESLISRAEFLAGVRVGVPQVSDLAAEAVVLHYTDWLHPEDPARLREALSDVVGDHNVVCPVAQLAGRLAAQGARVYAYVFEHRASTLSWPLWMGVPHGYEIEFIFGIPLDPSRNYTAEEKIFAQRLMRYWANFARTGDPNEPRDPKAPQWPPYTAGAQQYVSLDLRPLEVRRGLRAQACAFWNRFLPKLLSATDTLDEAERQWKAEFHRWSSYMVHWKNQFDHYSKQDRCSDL", "test": "Single-concentration screening, modified Ellman's assay (AChE)", "type": "biochemical", "settings": "0.5 mM ATC", "procedure": "(§1) Propranolol hydrochloride and diltiazem hydrochloride were obtained from Sigma-Aldrich (St. Louis, MO, United States). The stock solution was prepared at 10 mM in DMSO. Acetylthiocholine iodide (ATC), butyrylthiocholine iodide (BTC), and 5,5′-dithiobis-(2-nitrobenzoic acid) (DTNB) were also purchased from Sigma-Aldrich. Recombinant human AChE (Cat. No. C1682) and pooled human plasma (source of BChE) were used as enzyme sources. The pooled human plasma was prepared as described before ([Vijayaraghavan et al., 2013]). Briefly, pooled plasma samples were prepared by combining equal volumes from a large cohort of patients clinically diagnosed with mild-to-moderate AD. All samples were collected prior to the initiation of any cholinesterase inhibitor treatment. An equal volume of glycerol was then added to the pooled plasma, thoroughly mixed, and aliquoted into small tubes. These aliquots were stored at -20 °C until used in the assay. Each aliquot was used only once to avoid any interference due to freeze-thaw cycles. All other reagents were of analytical grade.\nCholinesterase activity was measured using a modified Ellman’s colorimetric method adapted for high-throughput screening ([Kumar et al., 2017]; [2020]; [Darreh-Shori et al., 2024]). Assays were conducted in 384-well microplates. Briefly, 20 µL of buffer was initially added to all wells. Subsequently, 20 µL of enzyme solution was added to designated wells, while 20 µL of buffer without enzyme was added to the negative control wells. […] The plate reader (Tecan Infinite M1000) was configured for a 384-well transparent plate in absorbance mode at 412 nm, with kinetic reading taken over 10 min at 1-min intervals. Following incubation, 20 µL of Master Mix Buffer (MMB) cocktail was added to each well using a multichannel pipette, and the plate reading was initiated inmediately. […] Upon completion of the reading, the data file was saved, enzyme activity rates were extracted, and the data were analyzed. Enzyme activity was calculated from the slope of the linear portion of the absorbance-time curve."}, "plasma-derived BChE": {"biological_target": "T2, plasma-derived BChE (Homo sapiens, UniProt P06276)", "T2 construct": "pooled human plasma (source of BChE) were used as enzyme sources; from tissue; host or cells: pooled human plasma from patients with mild-to-moderate AD", "T2 sequence (P06276 29-602)": "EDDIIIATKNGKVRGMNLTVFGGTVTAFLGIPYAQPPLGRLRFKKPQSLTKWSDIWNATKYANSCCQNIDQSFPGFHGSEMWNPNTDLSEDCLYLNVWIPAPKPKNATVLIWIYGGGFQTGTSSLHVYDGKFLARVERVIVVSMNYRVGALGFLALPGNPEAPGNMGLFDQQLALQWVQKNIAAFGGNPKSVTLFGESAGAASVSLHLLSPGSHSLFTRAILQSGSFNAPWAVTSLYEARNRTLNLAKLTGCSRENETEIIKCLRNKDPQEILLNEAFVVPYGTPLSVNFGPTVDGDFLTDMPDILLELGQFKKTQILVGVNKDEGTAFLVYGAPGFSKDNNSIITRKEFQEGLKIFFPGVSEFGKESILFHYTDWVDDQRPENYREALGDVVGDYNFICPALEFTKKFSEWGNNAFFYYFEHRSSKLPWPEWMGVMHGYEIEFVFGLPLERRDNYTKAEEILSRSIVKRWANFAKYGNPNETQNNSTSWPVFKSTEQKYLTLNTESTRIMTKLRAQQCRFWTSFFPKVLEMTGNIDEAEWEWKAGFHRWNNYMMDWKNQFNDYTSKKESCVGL", "test": "Single-concentration screening, modified Ellman's assay (BChE)", "type": "biochemical", "settings": "read-out: BChE inhibition relative to vehicle control", "procedure": "Propranolol hydrochloride and diltiazem hydrochloride were obtained from Sigma-Aldrich (St. Louis, MO, United States). The stock solution was prepared at 10 mM in DMSO. Acetylthiocholine iodide (ATC), butyrylthiocholine iodide (BTC), and 5,5′-dithiobis-(2-nitrobenzoic acid) (DTNB) were also purchased from Sigma-Aldrich. Recombinant human AChE (Cat. No. C1682) and pooled human plasma (source of BChE) were used as enzyme sources. The pooled human plasma was prepared as described before ([Vijayaraghavan et al., 2013]). Briefly, pooled plasma samples were prepared by combining equal volumes from a large cohort of patients clinically diagnosed with mild-to-moderate AD. […]\nCholinesterase activity was measured using a modified Ellman’s colorimetric method adapted for high-throughput screening ([Kumar et al., 2017]; [2020]; [Darreh-Shori et al., 2024]). […] The plate reader (Tecan Infinite M1000) was configured for a 384-well transparent plate in absorbance mode at 412 nm, with kinetic reading taken over 10 min at 1-min intervals. Following incubation, 20 µL of Master Mix Buffer (MMB) cocktail was added to each well using a multichannel pipette, and the plate reading was initiated inmediately. […] Upon completion of the reading, the data file was saved, enzyme activity rates were extracted, and the data were analyzed. […]"}, "human BChE": {"biological_target": "T3, human BChE (Homo sapiens, UniProt P06276)", "T3 construct": "pooled human plasma (source of BChE) were used as enzyme sources; from tissue; host or cells: pooled human plasma from patients with mild-to-moderate AD", "T3 sequence (P06276 29-602)": "as above", "test": "IC50 determination against BChE in pooled human plasma (Ellman)", "type": "biochemical", "procedure": "as §1, with “The” for “Propranolol hydrochloride and diltiazem hydrochloride were obtained from Sigma-Aldrich (St. Louis, MO, United States). The”\n(§2) Substrate concentrations were varied in a two-fold serial dilution: BTC (5 mM–[…]) for BChE and ATC (0.5 mM–[…]) for AChE. Each well received 20 µL of compound or vehicle, 20 µL of substrate, 20 µL of enzyme/DTNB master mix (for all of them 4x working solution in order to reach final concentration), and 20 µL of buffer. Absorbance at 412 nm was measured every 2 min for 15–20 min."}, "human plasma BChE": {"biological_target": "T4, human plasma BChE (Homo sapiens, UniProt P06276)", "T4 construct": "pooled human plasma (source of BChE) were used as enzyme sources; from tissue; host or cells: pooled human plasma from patients with mild-to-moderate AD", "T4 sequence (P06276 29-602)": "as above", "test": "Ex vivo enzyme-inhibition kinetic analysis (Ki and inhibition mode)", "type": "biochemical", "settings": "for Inhibition mode (BChE): best-fit nonlinear regression model", "procedure": "as §1, with “The” for “Propranolol hydrochloride and diltiazem hydrochloride were obtained from Sigma-Aldrich (St. Louis, MO, United States). The”\nas §2\nTo further elucidate the mechanism of inhibition, inhibition constant (Kᵢ) values and inhibition modes were determined using nonlinear regression models in GraphPad Prism 10. Multiple models were tested, including competitive, noncompetitive, uncompetitive, and mixed inhibition. The optimal model for each compound was selected based on residual analysis and the Akaike Information Criterion (AIC), ensuring robust statistical support. In cases of mixed inhibition, the α parameter was used to characterize the relative affinity of the inhibitor for the enzyme-substrate complex versus the free enzyme."}, "[1]": {"settings": "physiologically relevant concentration; ref Cruickshank and Neil-Dwyer, 1985; cited from earlier work"}, "BChE": {"tested_on": "BChE", "settings": "at approximately 0.59 µM in plasma and 10 µM in brain tissue; ref Cruickshank and Neil-Dwyer, 1985; cited from earlier work"}},
  "note": "Where a name gives a salt, the structure may show the parent alone. Read-outs that look alike come from different tables or passages of the source.",
  "data": [
    {"smiles": "COc1ccc([C@@H]2Sc3ccccc3N(CCN(C)C)C(=O)[C@@H]2OC(C)=O)cc1", "note": "[Diltiazem, diltiazem hydrochloride]", "values": [
      {"measurement": "inhibition at 100 µM", "setting": "Recombinant human AChE; single concentration 100 µM, read-out: AChE inhibition relative to vehicle control", "result": 2, "unit": "%"},
      {"measurement": "inhibition at 100 µM", "setting": "plasma-derived BChE; single concentration 100 µM, 5 mM BTC", "result": "> 80", "unit": "%"},
      {"measurement": "IC50", "setting": "human BChE", "result": 153000, "unit": "nM"},
      {"measurement": "Ki", "setting": "human plasma BChE", "result": 2300, "unit": "nM"},
      {"measurement": "Inhibition mode (BChE)", "setting": "human plasma BChE", "result": "competitive inhibitor"},
      {"measurement": "Inhibition mode (BChE)", "setting": "human plasma BChE; listed as diltiazem", "result": "competitive inhibition"}
    ]},
    {"smiles": "CCN(CC)C(C)CN1c2ccccc2Sc2ccccc21", "note": "(stereo not shown) [Ethopropazine]", "values": [
      {"measurement": "AChE inhibition relative to vehicle control", "setting": "Recombinant human AChE; single concentration 100 µM", "result": "no inhibition"},
      {"measurement": "IC50", "setting": "human BChE", "result": 2810, "unit": "nM"},
      {"measurement": "Inhibition mode (BChE)", "setting": "human plasma BChE", "result": "Mixed-competitive"},
      {"measurement": "Inhibition mode (BChE)", "setting": "human plasma BChE; listed as ethopropazine", "result": "mixed competitor"}
    ]},
    {"smiles": "CNC(=O)Oc1ccc2c(c1)[C@]1(C)CCN(C)[C@@H]1N2C", "note": "[Physostigmine]", "values": [
      {"measurement": "Inhibition mode (BChE)", "setting": "human plasma BChE", "result": "Competitive"},
      {"measurement": "Inhibition mode (BChE)", "setting": "human plasma BChE; listed as physostigmine", "result": "competitive inhibition"}
    ]},
    {"smiles": "CC(C)NCC(O)COc1cccc2ccccc12", "note": "(stereo not shown) [Propranolol, Propranolol hydrochloride]", "values": [
      {"measurement": "inhibition at 100 µM", "setting": "Recombinant human AChE; read-out: AChE inhibition relative to vehicle control, single concentration 100 µM", "result": 18, "unit": "%"},
      {"measurement": "inhibition at 100 µM", "setting": "plasma-derived BChE", "result": "> 80", "unit": "%"},
      {"measurement": "IC50", "setting": "human BChE; 5 mM BTC as substrate, plasma BChE, read-out: IC50 (BChE)", "result": 55600, "unit": "nM"},
      {"measurement": "Ki", "setting": "human plasma BChE", "result": 190, "unit": "nM"},
      {"measurement": "Inhibition mode (BChE)", "setting": "human plasma BChE", "result": "competitive inhibitor"},
      {"measurement": "Inhibition mode (BChE)", "setting": "human plasma BChE; listed as propranolol", "result": "competitive inhibition"},
      {"measurement": "Concentration that reduced BChE activity to half of its baseline level", "setting": "human plasma BChE; substrate concentration range of 0.08 mM–0.62 mM", "result": 0.19, "unit": "µM"},
      {"measurement": "Concentration in plasma", "setting": "[1]", "result": "approximately 0.59 µM"},
      {"measurement": "Concentration in the brain tissue", "setting": "[1]", "result": "~10", "unit": "µM"},
      {"measurement": "Reduction of BChE activity", "setting": "BChE", "result": "approximately 50%"}
    ]}
  ]
}
